Measurements taken from patent publication US8735361B2, “C1ORF59 peptides and vaccines including the same” (Oncotherapy Science, Inc., priority 2008, dated 2014).

Assays:
peptide-pulsed A24 LCL [1] = assay: IFN-gamma ELISA assay of CTL clones established by limiting dilution (HLA-A*2402); assay type: cell-based, human; conditions: CTL clones against target cells pulsed with peptide
Protocol: The dilutions were made to have 0.3, 1, and 3 CTLs/well in 96 round-bottomed micro titer plate (Nalge Nunc International). CTLs were cultured with 1×10^4 cells/well of 2 kinds of human B-lymphoblastoid cell lines, 30 ng/ml of anti-CD3 antibody, and 125 U/ml of IL-2 in a total of 150 microlitter/well of AIM-V Medium containing 5% AS. 50 microlitter/well of IL-2 were added to the medium 10 days later so to reach a final concentration of 125 U/ml IL-2. CTL activity was tested on the 14th day, and CTL clones were expanded using the same method as described above (Uchida N et al., Clin Cancer Res 2004 Dec. 15, 10(24): 8577-86; Suda T et al., Cancer Sci 2006 May, 97(5): 411-9; Watanabe T et al., Cancer Sci 2005 August, 96(8): 498-506).
(§1) To examine specific CTL activity, interferon (IFN)-gamma enzyme-linked immunospot (ELISPOT) assay and IFN-gamma enzyme-linked immunosorbent assay (ELISA) were performed. Specifically, peptide-pulsed A24 LCL (1×10^4/well) was prepared as stimulator cells. Cultured cells in 48 wells were used as responder cells. IFN-gamma ELISPOT assay and IFN-gamma ELISA assay were performed under manufacture procedure.

peptide-pulsed A24 LCL [2] = assay: In vitro CTL induction with HLA-A*2402 restricted peptides, IFN-gamma ELISPOT assay; assay type: cell-based, human; conditions: CTLs from HLA-A*2402 positive donor stimulated with peptide-pulsed DCs; compared to control wells
Text: Monocyte-derived dendritic cells (DCs) were used as antigen-presenting cells (APCs) to induce cytotoxic T lymphocyte (CTL) responses against peptides presented on human leukocyte antigen (HLA). DCs were generated in vitro as described elsewhere (Nakahara S et al., Cancer Res 2003 Jul. 15, 63(14): 4112-8). Specifically, peripheral blood mononuclear cells (PBMCs) isolated from a normal volunteer (HLA-A*2402 positive) by Ficoll-Plaque (Pharmacia) solution were separated by adherence to a plastic tissue culture dish (Becton Dickinson) so as to enrich them as the monocyte fraction. The monocyte-enriched population was cultured in the presence of 1000 U/ml of granulocyte-macrophage colony-stimulating factor (GM-CSF) (R&D System) and 1000 U/ml of interleukin (IL)-4 (R&D System) in AIM-V Medium (Invitrogen) containing 2% heat-inactivated autologous serum (AS). After 7 days of culture, the cytokine-induced DCs were pulsed with 20 micro gram/ml of each of the synthesized peptides in the presence of 3 micro gram/ml of beta 2-microglobulin for 3 hrs at 37 degrees C. in AIM-V Medium. The generated cells appeared to express DC-associated molecules, such as CD80, CD83, CD86 and HLA class II, on their cell surfaces (data not shown). These peptide-pulsed DCs were then inactivated by X-irradiated (20 Gy) and mixed at a 1:20 ratio with autologous CD8+ T cells, obtained by positive selection with CD8 Positive Isolation Kit (Dynal). These cultures were set up in 48-well plates (Corning); each well contained 1.5×10^4 peptide-pulsed DCs, 3×10^5 CD8+ T cells and 10 ng/ml of IL-7 (R&D System) in 0.5 ml of AIM-V/2% AS medium. Three days later, these cultures were supplemented with IL-2 (CHIRON) to a final concentration of 20 IU/ml. On day 7 and 14, the T cells were further stimulated with the autologous peptide-pulsed DCs. The DCs were prepared each time by the same way described above. CTL was tested against peptide-pulsed A24 LCL or T2 cells after the 3rd round of peptide stimulation on day 21 (Tanaka H et al., Br J Cancer 2001 Jan. 5, 84(1): 94-9; Umano Y et al., Br J Cancer 2001 Apr. 20, 84(8): 1052-7; Uchida N et al., Clin Cancer Res 2004 Dec. 15, 10(24): 8577-86; Suda T et al., Cancer Sci 2006 May, 97(5): 411-9; Watanabe T et al., Cancer Sci 2005 August, 96(8): 498-506)
as §1

[3] = system: COS7 cells transfected with C1orf59 and HLA-A*2402; assay: Specific CTL activity against target cells exogenously expressing C1orf59 and HLA-A*2402; assay type: cell-based, African green monkey
Text: The cDNA encoding an open reading frame of target genes or HLA-A24 was amplified by PCR. The PCR-amplified product was cloned into pCAGGS vector. The plasmids were transfected into COS7, which is the target genes and HLA-A24-null cell line, using lipofectamine 2000 (Invitrogen) according to the manufacturer's recommended procedures. After 2 days from transfection, the transfected cells were harvested with versene (Invitrogen) and used as the target cells (5×10^4 cells/well) for CTL activity assay.
The established CTL lines raised against these peptides were examined for their ability to recognize target cells that express C1orf59 and HLA-A*2402 molecule. Specific CTL activity against COS7 cells which transfected with both the full length of C1orf59 and HLA-A*2402 molecule gene (a specific model for the target cells that express C1orf59 and HLA-A*2402 gene) was tested using the CTL lines raised by corresponding peptide as the effecter cells. COS7 cells transfected with either full length of C1orf59 genes or HLA-A*2402 were prepared as control.

peptide-pulsed A24 LCL [4] = assay: IFN-gamma ELISA assay of expanded CTL lines (HLA-A*2402); assay type: cell-based, human; conditions: target cells pulsed with corresponding peptide compared to target cells without peptide pulse
Protocol: CTLs were expanded in culture using the method similar to the one described by Riddell et al. (Walter E A et al., N Engl J Med 1995 Oct. 19, 333(16): 1038-44; Riddell S R et al., Nat Med 1996 February, 2(2): 216-23). A total of 5×10^4 CTLs were suspended in 25 ml of AIM-V/5% AS medium with 2 kinds of human B-lymphoblastoid cell lines, inactivated by MMC, in the presence of 40 ng/ml of anti-CD3 monoclonal antibody (Pharmingen). One day after initiating the cultures, 120 IU/ml of IL-2 were added to the cultures. The cultures were fed with fresh AIM-V/5% AS medium containing 30 IU/ml of IL-2 on days 5, 8 and 11 (Tanaka H et al., Br J Cancer 2001 Jan. 5, 84(1): 94-9; Umano Y et al., Br J Cancer 2001 Apr. 20, 84(8): 1052-7; Uchida N et al., Clin Cancer Res 2004 Dec. 15, 10(24): 8577-86; Suda T et al., Cancer Sci 2006 May, 97(5): 411-9; Watanabe T et al., Cancer Sci 2005 August, 96(8): 498-506).
as §1

GYCTQIGIF [SEQ ID NO: 26]
IFN-gamma production of CTL clones by ELISA (peptide-pulsed A24 LCL [1]): Potent IFN-gamma productions
Peptide specific CTL activity, IFN-gamma production by ELISPOT (peptide-pulsed A24 LCL [2]): potent IFN-gamma production
Specific CTL activity against control COS7 cells ([3]; COS7 transfected with either full length C1orf59 or HLA-A*2402 alone): no significant specific CTL activity
Specific CTL activity against COS7 cells expressing both C1orf59 and HLA-A*2402 ([3]; CTLs raised by the peptide as effector cells): potent CTL activity
IFN-gamma production of CTL lines by ELISA (peptide-pulsed A24 LCL [4]): potent IFN-gamma production
